Experiments:
EGFR L858R = EGFR L858R (Homo sapiens (Human), UniProt P00533, L858R); assay: Biochemical EGFR inhibition assay, EGFR L858R; conditions: Caliper mobility shift; 1.0 mM ATP or ATP Km; read-out: Enz EGFR_L858R IC50
EGFR (d746-750) = EGFR (d746-750) (Homo sapiens (Human), UniProt P00533, DEL746-750); assay: Biochemical EGFR inhibition assay, EGFR (d746-750); conditions: Caliper mobility shift; 1.0 mM ATP or ATP Km; read-out: Enz EGFR_Exon19-del746-750 IC50
[1] = target: pEGFR (Tyr1068) in PC-9 cells (Ex19Del) (Homo sapiens (Human), UniProt P00533, DEL746-750); assay: PC-9 pEGFR AlphaLISA assay; assay type: cell-based; conditions: 4 hours incubation, p-EGFR (Tyr1068) AlphaLISA, read-out: Ext pEGFR_PC-9 Ex19Del IC50
pEGFR (Tyr1068) in PC-9 cells (Ex19Del), sequence (P00533 other isoform, or with tags, fused parts or gaps del 746-750): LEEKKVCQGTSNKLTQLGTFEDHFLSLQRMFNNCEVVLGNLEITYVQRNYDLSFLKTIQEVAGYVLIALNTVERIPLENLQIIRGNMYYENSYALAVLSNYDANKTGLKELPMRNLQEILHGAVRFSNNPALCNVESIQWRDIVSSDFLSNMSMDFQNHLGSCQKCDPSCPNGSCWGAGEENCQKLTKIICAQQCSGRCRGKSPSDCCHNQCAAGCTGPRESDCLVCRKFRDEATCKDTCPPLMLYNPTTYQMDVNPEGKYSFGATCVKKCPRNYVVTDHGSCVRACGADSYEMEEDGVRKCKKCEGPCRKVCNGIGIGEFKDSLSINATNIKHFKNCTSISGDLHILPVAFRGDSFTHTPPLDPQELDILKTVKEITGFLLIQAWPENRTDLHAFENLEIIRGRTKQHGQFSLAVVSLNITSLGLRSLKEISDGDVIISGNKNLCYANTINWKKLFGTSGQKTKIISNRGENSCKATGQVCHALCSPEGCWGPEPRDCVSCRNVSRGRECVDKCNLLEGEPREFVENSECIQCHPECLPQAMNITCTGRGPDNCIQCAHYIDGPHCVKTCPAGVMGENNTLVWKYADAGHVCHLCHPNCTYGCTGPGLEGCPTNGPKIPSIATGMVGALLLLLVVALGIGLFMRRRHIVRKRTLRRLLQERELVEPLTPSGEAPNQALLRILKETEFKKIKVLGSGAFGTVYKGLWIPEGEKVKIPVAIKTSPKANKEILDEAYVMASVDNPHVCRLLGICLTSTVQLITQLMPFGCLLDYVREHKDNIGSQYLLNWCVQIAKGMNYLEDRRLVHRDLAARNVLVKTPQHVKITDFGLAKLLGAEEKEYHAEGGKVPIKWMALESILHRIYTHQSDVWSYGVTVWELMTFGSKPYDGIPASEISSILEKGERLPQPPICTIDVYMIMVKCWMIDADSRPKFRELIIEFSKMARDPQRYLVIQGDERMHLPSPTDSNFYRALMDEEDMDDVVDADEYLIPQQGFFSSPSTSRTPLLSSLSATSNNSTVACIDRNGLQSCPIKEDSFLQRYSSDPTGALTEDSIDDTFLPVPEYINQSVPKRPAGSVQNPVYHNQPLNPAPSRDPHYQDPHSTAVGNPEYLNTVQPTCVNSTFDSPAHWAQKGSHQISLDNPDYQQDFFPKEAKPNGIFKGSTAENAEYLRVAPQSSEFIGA
Summary of the method: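 Cells seeded in phenol-free DMEM with 10% FBS adhered overnight at 37° C./5% CO2, then were exposed for 4 hours to a 4-fold, 10-point compound dilution series. After lysis, phospho-EGFR was read by AlphaLISA SureFire Ultra, and IC50 was fitted from percent inhibition versus log concentration.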

EGFR (d746-750), sequence (P00533 other isoform, or with tags, fused parts or gaps del 1-694/del 746-750 limits assumed): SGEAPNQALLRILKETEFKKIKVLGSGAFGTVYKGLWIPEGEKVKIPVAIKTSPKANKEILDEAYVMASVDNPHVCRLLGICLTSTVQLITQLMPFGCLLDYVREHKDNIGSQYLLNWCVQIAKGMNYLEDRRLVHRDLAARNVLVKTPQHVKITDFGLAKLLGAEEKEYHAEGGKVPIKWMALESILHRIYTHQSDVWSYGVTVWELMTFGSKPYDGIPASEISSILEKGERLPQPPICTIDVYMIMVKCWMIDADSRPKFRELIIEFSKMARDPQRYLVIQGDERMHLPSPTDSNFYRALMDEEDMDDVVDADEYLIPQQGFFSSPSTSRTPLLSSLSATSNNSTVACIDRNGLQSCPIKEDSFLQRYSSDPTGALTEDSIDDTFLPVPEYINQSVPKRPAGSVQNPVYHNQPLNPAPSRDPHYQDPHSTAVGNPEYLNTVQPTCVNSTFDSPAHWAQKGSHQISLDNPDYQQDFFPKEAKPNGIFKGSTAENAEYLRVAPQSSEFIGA
EGFR L858R, sequence (P00533 25-1210 L858R): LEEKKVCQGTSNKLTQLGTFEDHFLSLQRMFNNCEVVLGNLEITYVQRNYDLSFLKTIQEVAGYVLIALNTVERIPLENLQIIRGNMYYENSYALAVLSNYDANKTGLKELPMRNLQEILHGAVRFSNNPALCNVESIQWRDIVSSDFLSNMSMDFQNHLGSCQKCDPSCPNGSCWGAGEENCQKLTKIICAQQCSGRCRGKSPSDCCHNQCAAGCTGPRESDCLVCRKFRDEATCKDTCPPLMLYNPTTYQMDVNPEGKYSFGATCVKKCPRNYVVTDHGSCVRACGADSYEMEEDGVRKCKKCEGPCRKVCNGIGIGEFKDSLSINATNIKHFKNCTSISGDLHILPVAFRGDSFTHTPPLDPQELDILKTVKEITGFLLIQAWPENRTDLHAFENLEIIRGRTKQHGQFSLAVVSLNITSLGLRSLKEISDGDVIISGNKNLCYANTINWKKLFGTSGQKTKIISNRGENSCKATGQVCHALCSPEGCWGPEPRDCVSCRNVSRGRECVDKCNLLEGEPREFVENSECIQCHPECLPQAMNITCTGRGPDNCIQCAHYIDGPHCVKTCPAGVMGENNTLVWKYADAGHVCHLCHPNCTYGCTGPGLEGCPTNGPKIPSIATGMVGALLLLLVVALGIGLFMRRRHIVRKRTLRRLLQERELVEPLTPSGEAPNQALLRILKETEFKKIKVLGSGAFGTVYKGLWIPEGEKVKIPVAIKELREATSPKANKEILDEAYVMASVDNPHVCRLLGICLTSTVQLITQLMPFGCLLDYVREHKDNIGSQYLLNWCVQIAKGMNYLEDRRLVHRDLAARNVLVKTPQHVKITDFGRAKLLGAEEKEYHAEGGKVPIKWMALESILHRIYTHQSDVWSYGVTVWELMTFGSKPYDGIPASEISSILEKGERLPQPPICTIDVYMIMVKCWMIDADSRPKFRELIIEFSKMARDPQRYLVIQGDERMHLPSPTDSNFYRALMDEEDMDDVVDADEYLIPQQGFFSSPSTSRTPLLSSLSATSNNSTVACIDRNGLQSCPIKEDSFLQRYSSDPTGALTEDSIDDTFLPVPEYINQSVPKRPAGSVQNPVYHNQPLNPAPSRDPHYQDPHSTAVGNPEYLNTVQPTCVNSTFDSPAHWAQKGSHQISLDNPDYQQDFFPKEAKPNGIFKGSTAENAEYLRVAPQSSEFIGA

| IC50 (EGFR L858R) [nM] | IC50 (EGFR (d746-750)) [nM] | IC50 [1] [nM] | SMILES |
| --- | --- | --- | --- |
| 2 | 1.2 | 4.1 | COc1cc2ncnc(-c3cn(CC(F)F)nc3-c3ccccc3)c2cc1[C@@H](C)O (single isomer, unassigned) [Example 102, (R)-1-(4-(1-(2,2-difluoroethyl)-3-phenyl-1H-pyrazol-4-yl)-7-methoxyquinazolin-6-yl)ethan-1-ol or (S)-1-(4-(1-(2,2-difluoroethyl)-3-phenyl-1H-pyrazol-4-yl)-7-methoxyquinazolin-6-yl)ethan-1-ol] |
| 0.8 | 0.4 | 2 | CCOc1cc2ncnc(-c3cn(C)nc3-c3ccccc3)c2cc1NC(=O)[C@@]12C[C@@H]1CN(C)C2 (single isomer, unassigned) [Example 256, (1S,5S)—N-(7-ethoxy-4-(1-methyl-3-phenyl-1H-pyrazol-4-yl)quinazolin-6-yl)-3-methyl-3-azabicyclo[3.1.0]hexane-1-carboxamide or (1R,5R)—N-(7-ethoxy-4-(1-methyl-3-phenyl-1H-pyrazol-4-yl)quinazolin-6-yl)-3-methyl-3-azabicyclo[3.1.0]hexane-1-carboxamide] |
| 1.6 | 0.9 | 1 | CCOc1cc2ncnc(-c3cn(C)nc3-c3ccccc3)c2cc1NC(=O)c1cnn(CC)c1 [Example 298, N-(7-ethoxy-4-(1-methyl-3-phenyl-1H-pyrazol-4-yl)quinazolin-6-yl)-1-ethyl-1H-pyrazole-4-carboxamide] |
| 1.9 | 1.1 | 1.7 | CCOc1cc2ncnc(-c3cn(C)nc3-c3ccccc3)c2cc1N1CC2CC(C1)O2 [Example 167, 3-(7-ethoxy-4-(1-methyl-3-phenyl-1H-pyrazol-4-yl)quinazolin-6-yl)-6-oxa-3-azabicyclo[3.1.1]heptane] |
| 2.9 | 2.3 | 28.9 | CC(C)Oc1cc2ncnc(-c3cn(C)nc3-c3ccccc3)c2cc1[C@@H](C)O (single isomer, unassigned) [Example 114, (R)-1-(7-isopropoxy-4-(1-methyl-3-phenyl-1H-pyrazol-4-yl)quinazolin-6-yl)ethan-1-ol or (S)-1-(7-isopropoxy-4-(1-methyl-3-phenyl-1H-pyrazol-4-yl)quinazolin-6-yl)ethan-1-ol] |
| 4.5 | 1.9 | 6.7 | COc1cc2ncnc(-c3cn(C)nc3-c3ccccc3)c2cc1-c1cnc2c(ccn2C)c1 [Example 140, 7-methoxy-6-(1-methyl-1H-pyrrolo[2,3-b]pyridin-5-yl)-4-(1-methyl-3-phenyl-1H-pyrazol-4-yl)quinazoline] |
| 1 | 0.7 | 0.8 | COc1cc2ncnc(-c3cn(C)nc3-c3ccccc3)c2cc1NC(=O)c1nc(C)ccc1F [Example 330, 3-fluoro-N-(7-methoxy-4-(1-methyl-3-phenyl-1H-pyrazol-4-yl)quinazolin-6-yl)-6-methylpicolinamide] |
| 4.8 | 2.4 | 2.5 | COc1cc2ncnc(-c3cn(C)nc3-c3ccccc3)c2cc1OC(=O)N1[C@H](C)COC[C@@H]1C [Example 63, 7-methoxy-4-(1-methyl-3-phenyl-1H-pyrazol-4-yl)quinazolin-6-yl (3S,5R)-3,5-dimethylmorpholine-4-carboxylate] |
| 7.4 | 3 | 10.5 | COc1cc2ncnc(-c3cn(C)nc3-c3ccccc3)c2cc1OC1COCCOC1 [Example 21, 6-((1,4-dioxepan-6-yl)oxy)-7-methoxy-4-(1-methyl-3-phenyl-1H-pyrazol-4-yl)quinazoline] |
| 6.3 | 2.7 | 3 | COc1cc2ncnc(-c3cn(C4COC4)nc3-c3ccccc3)c2cc1OC(=O)N1CCOC[C@@H]1C [Example 68, 7-methoxy-4-(1-(oxetan-3-yl)-3-phenyl-1H-pyrazol-4-yl)quinazolin-6-yl (S)-3-methylmorpholine-4-carboxylate] |
| 0.9 | 0.5 | 0.9 | CCOc1cc2ncnc(-c3cn(C)nc3-c3ccccc3)c2cc1NC(=O)c1ccc(C2CC2)nc1 [Example 297, 6-cyclopropyl-N-(7-ethoxy-4-(1-methyl-3-phenyl-1H-pyrazol-4-yl)quinazolin-6-yl)nicotinamide] |
| 5.4 | 1.7 | 3.5 | COc1cc2ncnc(-c3cn(C)nc3-c3ccccc3)c2nc1NC(=O)[C@@]1(C)CCCO1 [Example 363, (R)-N-(7-methoxy-4-(1-methyl-3-phenyl-1H-pyrazol-4-yl)pyrido[3,2-d]pyrimidin-6-yl)-2-methyltetrahydrofuran-2-carboxamide] |
| 5.4 | 3 | 11 | COc1cc2ncnc(-c3cn(C)nc3-c3ccccc3)c2cc1N1CCN(C)C1=O [Example 176, 1-(7-methoxy-4-(1-methyl-3-phenyl-1H-pyrazol-4-yl)quinazolin-6-yl)-3-methylimidazolidin-2-one] |
| 18.1 | 4.8 | 11 | Cn1cc(-c2ncnc3cc(C#CCN4CCOCC4)c(NC(=O)C45CC(C4)C5)nc23)c(-c2ccccc2)n1 [Example 454, N-(4-(1-methyl-3-phenyl-1H-pyrazol-4-yl)-7-(3-morpholinoprop-1-yn-1-yl)pyrido[3,2-d]pyrimidin-6-yl)bicyclo[1.1.1]pentane-1-carboxamide] |
| 7.3 | 3.5 | 6.1 | COc1cc2ncnc(-c3cn(CCN(C)C)nc3-c3ccccc3)c2cc1NC(=O)C12CC(C1)C2 [Example 308, N-(4-(1-(2-(dimethylamino)ethyl)-3-phenyl-1H-pyrazol-4-yl)-7-methoxyquinazolin-6-yl)bicyclo[1.1.1]pentane-1-carboxamide] |
| 2.1 | 0.9 | 3.8 | COc1cc2ncnc(-c3cn(C)nc3-c3ccccc3)c2cc1NC(=O)C1(c2cccnc2)CC1 [Example 216, N-(7-methoxy-4-(1-methyl-3-phenyl-1H-pyrazol-4-yl)quinazolin-6-yl)-1-(pyridin-3-yl)cyclopropane-1-carboxamide] |
| 1.6 | 0.8 | 1.3 | CCOc1cc2ncnc(-c3cn(CC(F)F)nc3-c3ccccc3)c2cc1OC [Example 19, 4-(1-(2,2-difluoroethyl)-3-phenyl-1H-pyrazol-4-yl)-7-ethoxy-6-methoxyquinazoline] |
| 2.6 | 1.2 | 0.8 | COc1cc2ncnc(-c3cn(C)nc3-c3ccccc3)c2cc1NC(=O)c1sc(C2CC2)nc1C [Example 354, 2-cyclopropyl-N-(7-methoxy-4-(1-methyl-3-phenyl-1H-pyrazol-4-yl)quinazolin-6-yl)-4-methylthiazole-5-carboxamide] |
| 2 | 1 | 1.9 | COc1cc2ncnc(-c3cn(C)nc3-c3ccccc3)c2nc1-c1ccc2c(c1)CNC2=O [Example 152, 5-(7-methoxy-4-(1-methyl-3-phenyl-1H-pyrazol-4-yl)pyrido[3,2-d]pyrimidin-6-yl) isoindolin-1-one] |
| 4.6 | 2.5 | 8.1 | COc1cc2ncnc(-c3cn(C)nc3-c3ccccc3)c2cc1N1CC2(COC2)C1 [Example 161, 6-(7-methoxy-4-(1-methyl-3-phenyl-1H-pyrazol-4-yl)quinazolin-6-yl)-2-oxa-6-azaspiro[3.3]heptane] |
